Measured values published in paper PMC2288786 (BMC Structural Biology, 2008).
pKd: −log10 of the molar value. Where no end group is shown, it is not given here.

Tests used:
[1] = target: T1, CaM (Rattus norvegicus, UniProt P0DP29); experiment: Isothermal titration calorimetry of MBP peptide binding to CaM; parameters: species or system vertebrate
T1 construct: made in house; host or cells: E. coli Rosetta (DE3)
Procedure: The peptide was dissolved in 50 mM HEPES pH 7.5, 20 mM CaCl2 and stored at -20°C. […] Native MBP protein isolated using the chloroform extraction method from post-mortem human brain was obtained from FermLab (Turku, Finland).
The samples for the experiment were extensively dialysed against 50 mM HEPES pH 7.5, 20 mM CaCl2 and degassed in an ultrasonic water bath. […] The first injection of 2 μl was followed by 19 15-μl injections of the peptide. The experiment was carried out at +25, +30, +35, and +40°C. The dilution heat was measured by titrating the buffer with the 1 mM peptide solution. […] The raw data were fitted by non-linear least squares minimisation with models for both a single site and four binding sites (see Results), using the Origin version 5.0 software (MicroCal).

[2] = target: T1, CaM; experiment: Surface plasmon resonance, peptide over immobilised CaM; type: binding, vertebrate
Procedure: SPR assays were performed with a Biacore 3000 instrument (Biacore AB, Uppsala, Sweden). […] Binding of the peptide was tested in 10 mM HEPES pH 7.5, 150 mM NaCl, 4 mM CaCl2 containing 0.005% P-20 surfactant (Biacore AB), at a flow rate of 30 μl/min. Various concentrations of the peptide (2.5–200 μM) were injected in duplicate over both of the flow cells for 3 min, and a 6-min dissociation phase followed each injection. The surfaces were regenerated with a 20-s injection of 10 mM EDTA and another 10-s injection of 20 mM NaOH at a flow rate of 30 μl/min prior to the next injection cycle. The BIAevaluation software version 3.1 (Biacore AB) was used to analyse the data. […] Furthermore, a sensorgram of the injection of buffer alone was subtracted from the data. The data were analysed using the various interaction models available in the software, including the mass transfer model. The only model giving a reasonable fit to the data was the conformational change model (see Results).
A 20-μM solution of the peptide in the running buffer was injected over the flow cells of the CaM-coated sensor chip at a flow rate of 30 μl/min, using different injection times (1, 3, and 20 min). Each injection was followed by a 15-min dissociation time. The surface was regenerated and the data were treated as above.

[3] = target: T1, CaM; experiment: Far-UV circular dichroism, k2d secondary structure deconvolution; type: physicochemical, vertebrate; details: k2d deconvolution of CD spectrum, +20°C, 10 mM HEPES pH 7.5, 150 mM NaCl, 4 mM CaCl2; CaM 0.050 mg/ml, peptide 0.030 mg/ml
Procedure: The spectra were corrected by subtracting the spectrum of a buffer sample (10 mM HEPES pH 7.5, 150 mM NaCl, 4 mM CaCl2). Noise reduction was applied to smooth the data with the Jasco software. The spectra are presented as mean residue ellipticity (θ), calculated by using the molar concentration of peptide or protein and multiplying by the appropriate number of peptide bonds. […] Secondary structure contents of the samples were estimated with the program […] [26].

[4] = target: T1, CaM; experiment: Size exclusion chromatography of CaM with and without MBP peptide; type: binding, vertebrate; details: Superdex 75, free CaM
Procedure: Gel filtration chromatography with the ÄKTApurifier system (Pharmacia Biotech) was used to investigate the difference in the behaviour of CaM in the presence and absence of the MBP peptide. A Superdex 75 HR 10/30 column (Amersham Pharmacia Biotech) was equilibrated with 50 mM HEPES buffer pH 7.5, 150 mM NaCl, 4 mM CaCl2. The experiments were run at a flow rate of 0.5 ml/min, the injection volumes were 250 μl, the concentration of CaM was 0.8 mM, and the concentration of the peptide was 4 mM.

[5] = tested on: CaM; experiment: Affinity chromatography of human brain MBP on CaM-sepharose; type: binding
Procedure: Calcium-dependent affinity chromatography of human MBP on CaM-sepharose (GE Healthcare) was carried out as follows: 200 μg of lyophilized human brain MBP were dissolved in 50 mM HEPES pH 7.5, 150 mM NaCl, 2 mM CaCl2. The same buffer that was used to equilibrate 100 μl of the CaM-sepharose matrix. The sample was mixed with the matrix and washed with 5 ml of the above buffer. Elution was done with 1.4 ml of 50 mM HEPES pH 7.5, 150 mM NaCl, 2 mM EGTA. The fractions were applied on a 18% SDS-PAGE gel. To detect which isoforms were bound to CaM-sepharose, fractions 2 (wash) and 7 (EGTA elution) were purified with Vivapure® C18 Micro spin columns prior to analysis by mass spectrometry. MALDI-ToF mass spectrometry was performed with a Voyager-DE STR Biospectrometry Workstation (Applied Biosystems). 1 μl of the protein sample was spotted on sinapinic acid matrix.

HKGFKGVDAQGTLSKIFKL [MBP peptide]
pKd [1]: 4.59 | pKd ([1]; 25°C (298.15 K), fit to the specific binding site only (one site, peaks 2–7), 1.0 mM peptide into 0.10 mM CaM, 50 mM HEPES pH 7.5, 20 mM CaCl2): 5.47 | pKd ([1]; 30°C (303.15 K), fit to the specific binding site only (one site, peaks 2–7), 1.0 mM peptide into 0.10 mM CaM, 50 mM HEPES pH 7.5, 20 mM CaCl2): 5.64 | pKd ([1]; 35°C (308.15 K), fit to the specific binding site only (one site, peaks 2–7), 1.0 mM peptide into 0.10 mM CaM, 50 mM HEPES pH 7.5, 20 mM CaCl2): 5.72 | Kd in words ([1]; ITC, different temperatures): low μM range | pKd [2]: 4.24

calmodulin [CaM]
Random coil content [3]: 0.12 | α-Helix content [3]: 0.88 | β-Sheet content [3]: 0 | apparent molecular weight in gel filtration [4]: approximately 30 kDa

myelin basic protein (HKGFKGVDAQGTLSKIFKL) [MBP, Native MBP protein isolated using the chloroform extraction method from post-mortem human brain; 17.2- and 18.5-kDa isoforms]
binding to CaM-sepharose in presence of calcium ([5]; 50 mM HEPES pH 7.5, 150 mM NaCl, 2 mM CaCl2): retained in the affinity matrix | release from CaM-sepharose by EGTA ([5]; 50 mM HEPES pH 7.5, 150 mM NaCl, 2 mM EGTA): released | MBP isoforms in EGTA eluate ([5]; MALDI-ToF mass spectrometry): 17.2 and 18.5 kDa, were both present in the EGTA eluate
